Reference: ChEMBL document CHEMBL1201862, “PubChem BioAssay data set” (2004)
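Results reflect a 48-hour exposure of cells in 96-well plates to compound at five concentrations. GI50 is the concentration that inhibits growth by half.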 Calls of active or inactive are those of the source. No stated cut-off is given here; in the data, active = GI50 up to about 1.1 µM and inactive = higher.

Key:
Test in all cases: NCI anticancer screen, dose series, 48 h
A549 = tested on: A549
CAKI-1 = tested on: CAKI-1
EKVX = tested on: EKVX
HCC 2998 = tested on: HCC 2998
HCT-15 = tested on: HCT-15
HOP-92 = tested on: HOP-92
HT-29 = tested on: HT-29
NCI-H226 = tested on: NCI-H226
NCI-H23 = tested on: NCI-H23
NCI-H522 = tested on: NCI-H522
OVCAR-3 = tested on: OVCAR-3
OVCAR-4 = tested on: OVCAR-4
OVCAR-5 = tested on: OVCAR-5
RXF 393 = tested on: RXF 393
SF-295 = tested on: SF-295
SF-539 = tested on: SF-539
SK-OV-3 = tested on: SK-OV-3
SW-620 = tested on: SW-620
TK-10 = tested on: TK-10
UACC-62 = tested on: UACC-62

| Structure (SMILES) | GI50 (A549) | GI50 (CAKI-1) | GI50 (EKVX) | GI50 (HCC 2998) | GI50 (HCT-15) [µM] | GI50 (HOP-92) | GI50 (HT-29) | GI50 (NCI-H226) | GI50 (NCI-H23) | GI50 (NCI-H522) | GI50 (OVCAR-3) | GI50 (OVCAR-4) | GI50 (OVCAR-5) | GI50 (RXF 393) | GI50 (SF-295) | GI50 (SF-539) | GI50 (SK-OV-3) | GI50 (SW-620) | GI50 (TK-10) | GI50 (UACC-62) |
| --- | --- | --- | --- | --- | --- | --- | --- | --- | --- | --- | --- | --- | --- | --- | --- | --- | --- | --- | --- | --- |
| Oc1cc(-n2cccn2)c(O)cc1-n1cccn1 | > 86.9 µM (inactive) | 23.6 µM (inactive) | > 69.2 µM (inactive) | > 100 µM (inactive) | 28.8 | 21 µM (inactive) | 23 µM (inactive) | 62.5 µM (inactive) | 43.7 µM (inactive) | 11.5 µM (inactive) | 19.1 µM (inactive) | 19 µM (inactive) | 53.1 µM (inactive) | 16.7 µM (inactive) | 37.8 µM (inactive) | 62.1 µM (inactive) | > 100 µM (inactive) | 19.1 µM (inactive) | 26.8 µM (inactive) | 38.9 µM (inactive) |
| C=C1C(=O)O[C@H]2C1[C@H](OC(=O)/C(C)=C\COC(C)=O)C[C@]1(CO1)[C@@H]1[C@H](O)[C@H]3O[C@@]3(C)[C@@H]12 (stereo not given in full) | 49.2 µM (inactive) | 14.3 µM (inactive) | 26.3 µM (inactive) | 15 µM (inactive) | 18.5 | 15.2 µM (inactive) | 19.1 µM (inactive) | 26.8 µM (inactive) | 14.3 µM (inactive) | 8.87 µM (inactive) | 18.3 µM (inactive) | 27 µM (inactive) | > 71.6 µM (inactive) | 16.8 µM (inactive) | > 61 µM (inactive) | 27 µM (inactive) | > 67 µM (inactive) | 13.2 µM (inactive) | – | 15.8 µM (inactive) |
| C=C1C(=O)OC2/C=C(\C)CC(O)/C=C(/CO)CC(OC(=O)/C(C)=C/C)C12 (stereo not given) | 155 µM (inactive) | 34.8 µM (inactive) | 23 µM (inactive) | 42.7 µM (inactive) | 38.4 | 30.9 µM (inactive) | 54.6 µM (inactive) | 30 µM (inactive) | 27.7 µM (inactive) | 13 µM (inactive) | 29.9 µM (inactive) | 117 µM (inactive) | 147 µM (inactive) | 14.4 µM (inactive) | 163 µM (inactive) | 29 µM (inactive) | 158 µM (inactive) | 17.6 µM (inactive) | – | 37.8 µM (inactive) |
| O=C(CC(=O)c1ccc([N+](=O)[O-])cc1)C(=O)Nc1nccs1 | > 100 µM (inactive) | > 100 µM (inactive) | > 100 µM (inactive) | > 100 µM (inactive) | > 100 | > 100 µM (inactive) | > 100 µM (inactive) | > 100 µM (inactive) | > 100 µM (inactive) | > 100 µM (inactive) | > 100 µM (inactive) | > 100 µM (inactive) | > 100 µM (inactive) | > 100 µM (inactive) | – | > 100 µM (inactive) | > 100 µM (inactive) | > 100 µM (inactive) | > 100 µM (inactive) | > 100 µM (inactive) |
| Nc1ccc(-c2ncc3cc(-c4cccc(-c5cc6cnc(-c7ccc(N)cc7)nc6c6ccccc56)c4)c4ccccc4c3n2)cc1 | > 100 µM (inactive) | > 100 µM (inactive) | > 100 µM (inactive) | > 100 µM (inactive) | > 100 | > 100 µM (inactive) | > 100 µM (inactive) | > 100 µM (inactive) | > 100 µM (inactive) | > 100 µM (inactive) | > 100 µM (inactive) | – | > 100 µM (inactive) | > 100 µM (inactive) | > 100 µM (inactive) | > 100 µM (inactive) | > 100 µM (inactive) | > 100 µM (inactive) | > 100 µM (inactive) | > 100 µM (inactive) |
| S=C(N/N=C(/c1ccccc1)c1ccccn1)N1CCCCCC1 | < 0.0371 µM (active) | 0.0818 µM (active) | < 0.0329 µM (active) | 0.176 µM (active) | < 0.0213 | 0.55 µM (active) | < 0.0141 µM (active) | 0.0379 µM (active) | 0.0538 µM (active) | 0.0731 µM (active) | 0.01 µM (active) | 0.127 µM (active) | 0.0764 µM (active) | 0.67 µM (active) | < 0.0374 µM (active) | 0.198 µM (active) | < 0.027 µM (active) | < 0.0214 µM (active) | 0.112 µM (active) | 0.0476 µM (active) |
| CCO/N=[N+](\[O-])N(CC)CC | > 100 µM (inactive) | > 100 µM (inactive) | > 100 µM (inactive) | > 100 µM (inactive) | > 100 | > 100 µM (inactive) | > 100 µM (inactive) | > 100 µM (inactive) | > 100 µM (inactive) | > 100 µM (inactive) | > 100 µM (inactive) | – | > 100 µM (inactive) | > 100 µM (inactive) | > 100 µM (inactive) | > 100 µM (inactive) | > 100 µM (inactive) | > 100 µM (inactive) | > 100 µM (inactive) | > 100 µM (inactive) |
| Nc1cccc(C#Cc2cccc(C#Cc3cccc(N)n3)n2)n1 | – | > 100 µM (inactive) | > 100 µM (inactive) | > 100 µM (inactive) | > 100 | > 100 µM (inactive) | – | > 100 µM (inactive) | > 100 µM (inactive) | > 100 µM (inactive) | > 100 µM (inactive) | > 100 µM (inactive) | > 100 µM (inactive) | > 100 µM (inactive) | 66.7 µM (inactive) | 39.9 µM (inactive) | > 100 µM (inactive) | > 100 µM (inactive) | > 100 µM (inactive) | > 100 µM (inactive) |
| Cc1cn(C2CC(O)C(COC(=O)NCCC(F)(F)C(F)(F)C(F)(F)C(F)(F)F)O2)c(=O)[nH]c1=O (stereo not given) | > 100 µM (inactive) | > 100 µM (inactive) | > 100 µM (inactive) | > 100 µM (inactive) | – | 54.6 µM (inactive) | > 100 µM (inactive) | > 100 µM (inactive) | > 100 µM (inactive) | > 100 µM (inactive) | > 100 µM (inactive) | > 100 µM (inactive) | > 100 µM (inactive) | 78.5 µM (inactive) | > 100 µM (inactive) | > 100 µM (inactive) | > 100 µM (inactive) | > 100 µM (inactive) | > 100 µM (inactive) | > 100 µM (inactive) |
| CCCC/C(C)=N/NC(N)=S | > 100 µM (inactive) | > 100 µM (inactive) | > 100 µM (inactive) | > 100 µM (inactive) | > 100 | > 100 µM (inactive) | > 100 µM (inactive) | > 100 µM (inactive) | > 100 µM (inactive) | > 100 µM (inactive) | > 100 µM (inactive) | – | > 100 µM (inactive) | > 100 µM (inactive) | > 100 µM (inactive) | > 100 µM (inactive) | > 100 µM (inactive) | > 100 µM (inactive) | > 100 µM (inactive) | > 100 µM (inactive) |
| CC1(C)N=c2c(ncn2Cc2ccccc2)=C(C(N)=O)N1 | > 100 µM (inactive) | > 100 µM (inactive) | > 100 µM (inactive) | > 100 µM (inactive) | > 100 | > 100 µM (inactive) | > 100 µM (inactive) | > 100 µM (inactive) | > 100 µM (inactive) | > 100 µM (inactive) | > 100 µM (inactive) | > 100 µM (inactive) | > 100 µM (inactive) | > 100 µM (inactive) | > 100 µM (inactive) | > 100 µM (inactive) | > 100 µM (inactive) | > 100 µM (inactive) | > 100 µM (inactive) | > 100 µM (inactive) |
| O=C(/C=C/NC(=O)OCc1ccccc1)OCc1ccccc1 | > 100 µM (inactive) | > 100 µM (inactive) | > 100 µM (inactive) | > 100 µM (inactive) | > 100 | 41.6 µM (inactive) | > 100 µM (inactive) | > 100 µM (inactive) | > 100 µM (inactive) | > 100 µM (inactive) | > 100 µM (inactive) | > 100 µM (inactive) | > 100 µM (inactive) | > 100 µM (inactive) | > 100 µM (inactive) | 64.9 µM (inactive) | 32.4 µM (inactive) | > 100 µM (inactive) | 86.7 µM (inactive) | > 100 µM (inactive) |
| CN(C)CCCNc1ccc2nnn3c4ccc([N+](=O)[O-])cc4c(=O)c1c23 | 0.721 µM (active) | 1.73 µM (inactive) | 2.56 µM (inactive) | 2.23 µM (inactive) | 0.916 | 1.57 µM (inactive) | 0.55 µM (active) | 0.403 µM (active) | 2.03 µM (inactive) | 1.63 µM (inactive) | 2.55 µM (inactive) | 1.02 µM (active) | 1.99 µM (inactive) | 1.12 µM (active) | 1.42 µM (inactive) | 2.13 µM (inactive) | 1.79 µM (inactive) | 0.45 µM (active) | 1.13 µM (inactive) | 4.33 µM (inactive) |
| CCc1ccccc1NC(=O)c1cccc([N+](=O)[O-])c1O | 24.8 µM (inactive) | 25.1 µM (inactive) | 30.8 µM (inactive) | 24.7 µM (inactive) | 25.8 | 14.4 µM (inactive) | 26.5 µM (inactive) | 29 µM (inactive) | 18.7 µM (inactive) | 21 µM (inactive) | 26.7 µM (inactive) | 16.7 µM (inactive) | 17.9 µM (inactive) | 8.51 µM (inactive) | 5.18 µM (inactive) | > 100 µM (inactive) | 25 µM (inactive) | 38.4 µM (inactive) | – | 9.93 µM (inactive) |
